# Measured values as given in patent US8772348B2, “Materials and methods for pest control” (priority 2009, dated 2014).
# Like-named read-outs stand apart in the source and are kept apart here.
# Experiments:
# [1] = tested on: Aedes aegypti; conditions: filter paper discs, after a 24-hour exposure
# Method: Briefly, yellow fever mosquito, Ae. aegypti were obtained from strains that have been cultured in the laboratory of the Entomology and Nematology Department, University of Florida.
# The mortality rate is measured after a 2-hour, 4-hour and 24-hour exposure period. Ataxic mosquitoes are considered dead.
# The ability of Ae. aegypti to recover from insecticidal exposure is also investigated. After a 2-hour exposure, each set of Ae. aegypti is transferred into a separate jar. The mortality rate is measured at two time intervals: first, immediately at the transfer (2 hours after the initial exposure), and second, 22 hours after the transfer (24 hours after the initial exposure).
# [2] = tested on: Musca domestica; conditions: formulation on plywood panels, 3.33 mg cm^−2 (footnote 1.67), 2 h exposure, mortality 24 h after
# Method: Briefly, after Musca domestica is exposed to formulations at concentration of 3.33 mg cm^−2 for 2 hours, each set is transferred into a separate glass jar, and held for another 24 hours.
# (§1) Plywood panels (225 cm^2) were treated with chemicals at a rate of 1.67 mg cm^−2. Panels were treated on day 0 and was held until exposure on post-treatment day. Mosquitoes were exposed to chemicals for 2 h, and mortality rate was assessed 24 h after initial exposure. Control contained formulation ingredients without semiochemicals.
# [3] = tested on: Aedes aegypti; conditions: formulation on plywood panels at 1.67 mg cm^−2, 2 h exposure, mortality 24 h after initial exposure
# Method: Briefly, after mosquitoes are assayed on unpainted plywood panel boards with formulation at a concentration of 1.67 mg cm^−2 for 2 hours, they are transferred into a separate glass jar, and held for another 24 hours. The mortality rate is measured daily for a continuous 4 days (Day 1 starts at 24 hours after the transfer), as is determined using the same procedures as are illustrated in Example 2.
# as §1
# [4] = tested on: Musca domestica; conditions: M. domestica; formulation on plywood panels at 1.67 mg cm^−2; mortality 24 h after
# Method: Briefly, each fly strain is divided into eight sets: three sets as the experiment, four sets as the positive control, and one set as the negative control. Flies are assayed on unpainted plywood panel boards that have been previously exposed to natural summer weather conditions for at least 10 days. […] The positive control set is treated with permethrin, geranyl acetone, rosalva or citronellol. The negative control set is treated with water. The formulation is applied at a uniform rate of 7.5 ml per 225 cm^2, sufficient to cover the entire panel without dripping. Subsequently, the treated panel boards are dried for about an hour.
# In each set, 20 adult flies are placed onto the panel boards. Flies are secured with wooden embroidery hoops, covered with a coarse mesh screen cloth previously sprayed with the respective formulation. After 4 hours, flies are transferred into a clean jar. The mortality rate is measured 24 hours after the transfer, and is determined using the same procedures as are illustrated in Example 2.
# Plywood panels (225 cm^2) were treated with chemicals at a rate of 1.67 mgcm^−2. Panels were treated on day 0 and held until exposure on post-treatment day. Mosquitoes were exposed to chemicals for 2 h, and mortality rate was assessed 24 h after initial exposure. Control contained formulation ingredients without semiochemicals.
smiles,measurement,setting,value
"CC1(C)CCCC2=C1CC(C=O)CC2 (stereo not drawn) [Cyclemone A, 2-naphthaldehyde, 1,2,3,4,5,6,7,8-octahydro-8,8-dimethyl]",mortality rate,[1],~100%
same,% mortality on various days following treatment,[2]; day 1,100.00a %
same,% mortality on various days following treatment,[2]; day 2,49.25b %
same,% mortality on various days following treatment,[2]; day 3,48.25b %
same,% mortality on various days following treatment,[2]; day 5,27.75c %
same,% mortality on various days following treatment,[2]; day 7,18.75b %
same,% mortality on various days following treatment,[2]; day 14,9.00b %
same,% mortality on various days following treatment,[3]; day 1,100.00a %
same,% mortality on various days following treatment,[3]; day 2,72.00b %
same,% mortality on various days following treatment,[3]; day 3,28.0b %
same,% mortality on various days following treatment,[3]; day 4,13.0b %
same,% mortality,[4],48.20b %
